Experimental data: patent US8460635B2, “Fenretinide derivatives and uses thereof as therapeutic, diagnostic and imaging agents” (Albert Einstein College of Medicine of Yeshiva University, priority 2008, dated 2013)
“Also recorded” adds a separate entry of the source. Like-named read-outs stand apart in the source and are kept apart here.

Key:
Type in all cases: cell-based
[1] = test system: MON (INI1−/−) rhabdoid tumor cells; assay: MTS survival assay of rhabdoid tumor cells; conditions: for cytotoxic activity against rhabdoid tumor cells (in words): compared with 4-HPR
Protocol: FIG. 1A-1D. Effect of 4HPR derivatives with phenyl group substitutions on survival of rhabdoid tumors cells. MON (INI1−/−) cells were treated with serial dilutions of the 4HPR, ATRA and 4HPR derivatives for three days. Survival assay was carried out as described using MTS assay kit. Percentage of cell survival plotted against concentration of drugs (Mean+/−SEM).
FIG. 2. Effect of fenretinide peptidomimitic derivatives on the survival of rhabdoid tumor cells in culture. % survival of MON rhabdoid tumor cells treated with fenretinide derivatives, when compared to the vehicle treated control. The data in all the panels represent the average of triplicate experiments, and the standard error is indicated.
The rhabdoid cell line (MON) (88) was cultured in RPMI 1640 supplemented with 10% fetal bovine serum, 2 mM L-glutamine, 50 U/ml penicillin, and 50 μg/ml streptomycin at 37° C. with 5% CO2 and 95% humidified air. 4-(Fenretinide) was either obtained from NCI or synthesized in house. Fenretinide or its synthetic derivatives were reconstituted in 100% ethanol as a 10 mM solution and the aliquots were stored frozen at −80° C., protected from light. Working solutions (50 μM or 200 μM) and serial dilutions were prepared by diluting the stock solution with culture medium, such that the concentration of ethanol was <2% in all dilutions.
Aliquots of 8×10^3 MON cells were plated in 96-well microdilution plates. Twenty four hours after seeding, the cells were treated with serial dilutions of each drug. Following incubation for 24 or more hours, each well was stained with 20 μl of MTS [3-(4,5-dimethylthiazol-2-yl)-5-(3-carboxymethoxyphenyl)-2-(4-sulfophenyl)-2H-tetrazolium, inner salt] that was mixed 20:1 V/V in PMS (phenazine methosulphate, CellTiter 96® AQueous Non-Radioactive Cell Proliferation Assay Kit, Promega, Madison, Wis.) added to each of the well in the microtiter plate containing 100 μl of culture medium. After 4 h incubation, the plates were analyzed by an ELISA plate reader (Wallac Victor, 1420 Multilabel Counter, Perkin Elmer) at 490 nm wave-length. Cell plating, drug treatment and survival assay were performed using the epMotion 5070 automated liquid handling robotic system (Eppendorff, Westbury, N.Y.).
Statistical analysis of the data was carried out using GraphPad Prism (San Diego, Calif.). Relative IC50 values were calculated using the nonlinear regression curve fit with sigmoidal dose response (variable slope) function. Relative IC50 is defined as the concentration giving a response exactly half way between the fitted top and bottom of the survival curve when graphed as percent inhibition versus the log of the concentration of compound. The fitting error, or standard error describes the error involved in fitting the curve.

MON cells = assay: FACS analysis of cell cycle and sub-G1 (apoptosis); conditions: 2 days
Protocol: FIG. 3A-3B. Induction of cell cycle arrest and apoptosis by halogen derivatives of fenretinide. A. Cell cycle profile determined by FACS analysis of MON cells treated with either 5 or 10 μM concentrations of fenretinide and its derivatives for 2 days. Percentage of cells at various stages of cell cycle (G1, S and G2) is indicated. B. Percentage of MON cells at sub-G1 when exposed for 2 days to fenretinide and its derivatives.
FIG. 4A-4B. Induction of cell cycle arrest and apoptosis by peptidomimetic derivatives of fenretinide. A. Cell cycle profile determined by FACS analysis of MON cells treated with either 5 or 10 μM concentrations of fenretinide and its derivatives for 2 days. Percentage of cells at various stages of cell cycle (G1, S and G2) is indicated. B. Percentage of MON cells at sub-G1 when exposed for 2 days to fenretinide and its derivatives.
(§1) The effects of fenretinide, halogen substitutes, and peptidomimetic derivatives on cell cycle regulation and apoptosis were tested by using: i) cell survival assay (MTS); ii) FACS analysis; and iii) immunoblot analysis to determine the effect on Cyclin D1.

[2] = test system: MON (INI1−/−) rhabdoid tumor cells; assay: MTS survival assay of rhabdoid tumor cells; conditions: charcoal adsorbed serum
Cyclin D1 = assay: Immunoblot analysis of Cyclin D1 expression; conditions: for Repression of Cyclin D1: biomarker expression, Table 3
Protocol: FIG. 5A-5B. Effect of fenretinide, its derivatives and peptidomimetic compounds on expression of Cyclin D1. Immunoblot analysis to determine the effect of fenretinide and its halogen substitutes (A) and peptidomimetic compounds (B). GAPDH is a loading control.
This assay was performed using a routine laboratory protocol as previously described using chemiluminescence detection method (30). The following antibodies were used: polyclonal α-cyclin D1 Ab-3 (NeoMarkers, Cat# RB-010-P0), monoclonal α-cyclin D1 DCS-6 (NeoMarkers, Cat# MS-210-P1), α-β-Actin (Sigma Cat# A5441) and α-Tubulin-α (Sigma, Cat # T5168).
as §1

[3] = MON cells, three days, compounds in FIG. 1A-1D, concentration of drug required to kill 50% of cells, read-out: IC50
[4] = MON rhabdoid cells, survival assay, values in text, read-out: IC50
[5] = 72 h, MON cells, three days, compounds in FIG. 1A-1D, concentration of drug required to kill 50% of cells, read-out: IC50
[6] = regular FBS, read-out: IC50 (in regular FBS)

Compound	IC50 [1, 3] [µM]	IC50 [1, 4] [µM]	cytotoxic activity against rhabdoid tumor cells (in words) [1]	IC50 [1, 5] [µM]	IC50 [1, 6] [µM]	% G1 (MON cells; 5 μM, Table 5) [%]	% G2 (MON cells; 5 μM, Table 5) [%]	% S (MON cells; 5 μM, Table 5) [%]	SubG1 (percentage of MON cells at sub-G1) (MON cells; 5 μM, Table 5) [%]	% G1 (MON cells; 10 μM, Table 5) [%]	% G2 (MON cells; 10 μM, Table 5) [%]	% S (MON cells; 10 μM, Table 5) [%]	SubG1 (percentage of MON cells at sub-G1) (MON cells; 10 μM, Table 5) [%]	IC50 [2] [µM]	Repression of Cyclin D1 (Cyclin D1)	further results
(2E,4E,6E,8E)-[3,7-Dimethyl-9-(2,6,6-trimethyl-1-cyclohexenyl)-nona-2,4,6,8-tetraenoylamino]-(4-nitro)phenylamide [5(e)]	> 200	> 200	–	–	–	–	–	–	–	–	–	–	–	–	–	–
(2E,4E,6E,8E)-[3,7-Dimethyl-9-(2,6,6-trimethyl-1-cyclohexenyl)-nona-2,4,6,8-tetraenoylamino]-(4-ethylalcohol)phenylamide [5(m)]	> 50	–	lack of activity	–	–	–	–	–	–	–	–	–	–	–	–	–
CC1=C(/C=C/C(C)=C/C=C/C(C)=C/C(=O)Nc2ccc(Cl)cc2)C(C)(C)CCC1 [5(b), (2E,4E,6E,8E)-[3,7-Dimethyl-9-(2,6,6-trimethyl-1-cyclohexenyl)-nona-2,4,6,8-tetraenoylamino]-(4-chloro)phenylamide]	–	≥ 150	–	> 200	–	–	–	–	–	–	–	–	–	–	–	–
CC1=C(/C=C/C(C)=C/C=C/C(C)=C/C(=O)Nc2ccc(F)cc2)C(C)(C)CCC1 [5(a)]	–	≥ 150	–	150	> 50	78.56	14.61	6.84	8.30	65.50	27.25	7.25	9.44	> 15	–	–
CC1=C(/C=C/C(C)=C/C=C/C(C)=C/C(=O)Nc2ccc(O)c(Cl)c2)C(C)(C)CCC1 [5(i), (2E,4E,6E,8E)-[3,7-Dimethyl-9-(2,6,6-trimethyl-1-cyclohexenyl)-nona-2,4,6,8-tetraenoylamino]-(3-chloro, 4-hydroxy)phenylamide]	–	10	–	12.5	10	–	–	–	–	–	–	–	–	1.5	Yes	–
CC1=C(/C=C/C(C)=C/C=C/C(C)=C/C(=O)Nc2ccc(O)cc2O)C(C)(C)CCC1 [5(n), (2E,4E,6E,8E)-[3,7-Dimethyl-9-(2,6,6-trimethyl-1-cyclohexenyl)-nona-2,4,6,8-tetraenoylamino]-(2,4-dihydroxy)phenylamide]	–	8	retains 4-HPR activity	8	8	85.42	8.48	6.11	25.81	88.30	6.05	5.65	43.53	–	–	–
CCC1=C(C)/C(=C/c2ccc(C(=O)O)cc2)CCC1(C)C [Compound 8]	–	> 50	–	–	–	–	–	–	–	–	–	–	–	–	–	IC50 ([1]; MON cells, nonlinear regression, sigmoidal dose response, read-out: Relative IC50): > 50 µM
(2E,4E,6E,8E)-[3,7-Dimethyl-9-(2,6,6-trimethyl-1-cyclohexenyl)-nona-2,4,6-tetraenoylamino]-(4-alcohol)phenylamide [5(l)]	25	–	lack of activity	–	–	–	–	–	–	–	–	–	–	–	–	–
CC1=C(/C=C/C(C)=C/C=C/C(C)=C/C(=O)O)C(C)(C)CCC1 [ATRA, All-trans retinoic acid, reference compound]	–	100	did not have appreciable cytotoxic activity; also recorded: did not exhibit activities against rhabdoid tumor cells	100	> 50	82.64	11.04	6.32	8.22	82.08	11.21	6.71	9.27	> 15	No	down modulation of Cyclin D1 (in words) (Cyclin D1; rhabdoid tumor cells): unable to down modulate Cyclin D1; % G1 (MON cells; 5 μM, Table 6): 82.64%; % G2 (MON cells; 5 μM, Table 6): 9.07%; % S (MON cells; 5 μM, Table 6): 8.58%; SubG1 (percentage of MON cells at sub-G1) (MON cells; 5 μM, Table 6): 8.22%; % G1 (MON cells; 10 μM, Table 6): 82.08%; % G2 (MON cells; 10 μM, Table 6): 8.18%; % S (MON cells; 10 μM, Table 6): 8.51%; SubG1 (percentage of MON cells at sub-G1) (MON cells; 10 μM, Table 6): 9.27%
(2E,4E,6E,8E)-[3,7-Dimethyl-9-(2,6,6-trimethyl-1-cyclohexenyl)-nona-2,4,6,8-tetraenoylamino]-(4-bromo)phenylamide [5(c)]	150	–	–	–	–	–	–	–	–	–	–	–	–	–	–	–
CC1=C(/C=C/C(C)=C/C=C/C(C)=C/C(=O)Nc2ccc(O)c(I)c2)C(C)(C)CCC1 [5(j), (2E,4E,6E,8E)-[3,7-Dimethyl-9-(2,6,6-trimethyl-1-cyclohexenyl)-nona-2,4,6,8-tetraenoylamino]-(3-Iodo, 4-hydroxy)phenylamide]	–	~3	more active when compared to parent Fenretinide	3	3	86.11	7.83	6.06	26.48	87.97	6.87	5.16	34.21	0.8	Yes	–
CC1=C(/C=C/C(C)=C/C=C/C(C)=C/C(=O)Nc2ccc(O)c(F)c2)C(C)(C)CCC1 [5(h), (2E,4E,6E,8E)-[3,7-Dimethyl-9-(2,6,6-trimethyl-1-cyclohexenyl)-nona-2,4,6,8-tetraenoylamino]-(3-fluoro,4-hydroxy)phenylamide]	–	8	–	8	8	87.23	7.10	5.67	38.78	87.22	6.97	5.81	50.79	–	Yes	–
